Assay results taken from article PMC12175890 (Science Advances, 2025).

Biological target: T1, BdPAPT-CD (Babesia duncani, UniProt A0AAD9PLN9)
T1 sequence (A0AAD9PLN9 301-734): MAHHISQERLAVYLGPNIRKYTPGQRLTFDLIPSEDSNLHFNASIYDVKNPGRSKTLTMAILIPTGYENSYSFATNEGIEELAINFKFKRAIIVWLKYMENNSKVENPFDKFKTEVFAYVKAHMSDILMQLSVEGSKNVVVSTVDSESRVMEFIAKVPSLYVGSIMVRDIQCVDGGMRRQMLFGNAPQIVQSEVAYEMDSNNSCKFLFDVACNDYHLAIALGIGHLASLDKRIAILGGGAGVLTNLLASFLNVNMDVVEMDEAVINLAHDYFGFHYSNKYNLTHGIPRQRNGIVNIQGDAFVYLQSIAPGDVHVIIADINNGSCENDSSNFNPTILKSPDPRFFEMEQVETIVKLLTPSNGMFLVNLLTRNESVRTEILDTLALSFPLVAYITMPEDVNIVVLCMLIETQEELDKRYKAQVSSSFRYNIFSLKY
Assay: TLC of spermidine formation
Format: biochemical
Conditions: 0.1 mM dcSAM, 0.1 mM putrescine, 37 °C, potassium phosphate pH 7.5

NCCCCN [PUT]
TLC of spermidine formation: efficient conversion of PUT to SPD by BdPAPT-Cterm and its CD
